Here are results for one compound from ChEMBL document CHEMBL4393689, “Discovery of fluorescent coumarin-benzo[b]thiophene 1, 1-dioxide conjugates as mitochondria-targeting antitumor STAT3 inhibitors” (Eur J Med Chem, 2019).

Data set [1] has as its system MDA-MB-231. In words: Potency index, ratio of IC50 of BTP to ratio of IC50 of compound for antiproliferative activity against human MDA-MB-231 cells assessed as reduction in cell viability incubated for 48 hrs by MTT assay. It counts as functional. In general terms: Tetrazolium assays rely on reduction of a dye to a coloured formazan, in cell work by metabolically active cells.

In data set [2] the test system is 4T1. In words: Antitumor activity against mouse 4T1 cells implanted in BALB/c mouse assessed as reduction in tumor volume at 10 mg/kg, ip for 14 days. The settings on record: 4T1, ip, 336 h. It counts as functional.
Data set [3] deals with HepG2. In words: Antiproliferative activity against human HepG2 cells assessed as reduction in cell viability incubated for 48 hrs by MTT assay. It counts as functional, cell-based. The following applies: HepG2, 48 h.
Data set [4] deals with Signal transducer and activator of transcription 3 (Homo sapiens) (UniProt P40763). In words: Inhibition of STAT3 in human MDA-MB-231 cells assessed as decrease in STAT3 phosphorylation at Ser727 residue incubated for 24 hrs by Western blot analysis. The format is cell-based.
Chain of Signal transducer and activator of transcription 3 (Homo sapiens) (P40763 whole entry): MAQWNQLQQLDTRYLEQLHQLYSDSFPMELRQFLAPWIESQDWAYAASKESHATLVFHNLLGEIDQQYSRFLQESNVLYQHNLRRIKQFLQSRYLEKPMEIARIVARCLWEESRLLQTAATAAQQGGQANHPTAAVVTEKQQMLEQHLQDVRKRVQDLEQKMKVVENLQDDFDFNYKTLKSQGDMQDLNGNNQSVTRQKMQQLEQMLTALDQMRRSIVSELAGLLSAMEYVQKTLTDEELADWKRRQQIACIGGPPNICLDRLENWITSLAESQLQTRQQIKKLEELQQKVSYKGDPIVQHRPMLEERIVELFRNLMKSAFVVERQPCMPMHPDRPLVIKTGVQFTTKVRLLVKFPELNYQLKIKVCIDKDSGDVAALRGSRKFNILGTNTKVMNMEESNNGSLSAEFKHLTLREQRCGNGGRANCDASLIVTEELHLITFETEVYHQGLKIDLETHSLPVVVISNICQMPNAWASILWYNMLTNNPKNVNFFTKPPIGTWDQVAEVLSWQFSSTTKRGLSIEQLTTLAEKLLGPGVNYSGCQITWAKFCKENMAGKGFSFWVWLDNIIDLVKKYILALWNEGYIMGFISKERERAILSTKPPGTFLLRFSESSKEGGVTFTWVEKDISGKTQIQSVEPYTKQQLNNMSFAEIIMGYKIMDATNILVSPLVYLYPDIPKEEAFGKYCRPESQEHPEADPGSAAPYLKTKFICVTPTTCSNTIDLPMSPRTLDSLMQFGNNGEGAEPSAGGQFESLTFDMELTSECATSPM
A further data set has as its system MCF-10A. The data set can be described thus: Cytotoxicity against human MCF10A cells assessed as reduction in cell viability incubated for 48 hrs by MTT assay. It counts as cell-based.
In data set [5] the test system is MDA-MB-231. In words: Induction of mitochondrial membrane depolarization in human MDA-MB-231 cells assessed as increase in green fluorescence incubated for 24 hrs JC-1 staining based flow cytometric analysis. The format is functional, cell-based. (In general: A flow cytometer gives signals particle by particle.)
For data set [6], the system named is 4T1. The data set can be described thus: Antitumor activity against mouse 4T1 cells implanted in BALB/c mouse assessed as reduction in tumor weight at 20 mg/kg, ip for 14 days. It counts as functional. The settings on record: 4T1, ip, 336 h.
For data set [7], the system named is HepG2. The data set can be described thus: Potency index, ratio of IC50 of BTP to ratio of IC50 of compound for antiproliferative activity against human HepG2 cells assessed as reduction in cell viability incubated for 48 hrs by MTT assay. It counts as functional.
The subject of data set [8] is MDA-MB-231. The data set can be described thus: Induction of apoptosis in human MDA-MB-231 cells assessed as increase in cleaved PARP levels at 1 to 4 uM incubated for 24 hrs by Western blot analysis. The format is functional, cell-based. (In general: In western blotting, separated proteins are transferred to a membrane and probed.)
Data set [9] deals with MDA-MB-231. In words: Induction of apoptosis in human MDA-MB-231 cells assessed as late apoptotic cells at 1 uM incubated for 24 hrs by annexinV-FITC and propidium iodide staining based flow cytometric analysis (reference value: 1.0%). The format is functional.
The test system of data set [10] is MDA-MB-231. The data set can be described thus: Induction of apoptosis in human MDA-MB-231 cells assessed as necrotic cells at 2 uM incubated for 24 hrs by annexinV-FITC and propidium iodide staining based flow cytometric analysis (reference value: 0.8%). The format is functional.
A short description of data set [11]: Selectivity index, ratio of IC50 for human MCF10A cells to IC50 for human MDA-MB-231 cells. It counts as toxicity. The settings on record: MCF10A cells versus MDA-MB-231 cells, read-out: Ratio IC50.
The subject of data set [12] is MCF7. In words: Antiproliferative activity against human MCF7 cells assessed as reduction in cell viability incubated for 48 hrs by MTT assay. The settings on record: MCF7, 48 h. The format is functional, cell-based.
In data set [13] the target is Tyrosine-protein kinase JAK2 (Homo sapiens) (UniProt O60674). In words: Inhibition of JAK2 in human MDA-MB-231 cells assessed as reduction in JAK2 phosphorylation at 1 to 4 uM incubated for 24 hrs by Western blot analysis. It counts as cell-based.
Chain of Tyrosine-protein kinase JAK2 (Homo sapiens) (O60674 whole entry): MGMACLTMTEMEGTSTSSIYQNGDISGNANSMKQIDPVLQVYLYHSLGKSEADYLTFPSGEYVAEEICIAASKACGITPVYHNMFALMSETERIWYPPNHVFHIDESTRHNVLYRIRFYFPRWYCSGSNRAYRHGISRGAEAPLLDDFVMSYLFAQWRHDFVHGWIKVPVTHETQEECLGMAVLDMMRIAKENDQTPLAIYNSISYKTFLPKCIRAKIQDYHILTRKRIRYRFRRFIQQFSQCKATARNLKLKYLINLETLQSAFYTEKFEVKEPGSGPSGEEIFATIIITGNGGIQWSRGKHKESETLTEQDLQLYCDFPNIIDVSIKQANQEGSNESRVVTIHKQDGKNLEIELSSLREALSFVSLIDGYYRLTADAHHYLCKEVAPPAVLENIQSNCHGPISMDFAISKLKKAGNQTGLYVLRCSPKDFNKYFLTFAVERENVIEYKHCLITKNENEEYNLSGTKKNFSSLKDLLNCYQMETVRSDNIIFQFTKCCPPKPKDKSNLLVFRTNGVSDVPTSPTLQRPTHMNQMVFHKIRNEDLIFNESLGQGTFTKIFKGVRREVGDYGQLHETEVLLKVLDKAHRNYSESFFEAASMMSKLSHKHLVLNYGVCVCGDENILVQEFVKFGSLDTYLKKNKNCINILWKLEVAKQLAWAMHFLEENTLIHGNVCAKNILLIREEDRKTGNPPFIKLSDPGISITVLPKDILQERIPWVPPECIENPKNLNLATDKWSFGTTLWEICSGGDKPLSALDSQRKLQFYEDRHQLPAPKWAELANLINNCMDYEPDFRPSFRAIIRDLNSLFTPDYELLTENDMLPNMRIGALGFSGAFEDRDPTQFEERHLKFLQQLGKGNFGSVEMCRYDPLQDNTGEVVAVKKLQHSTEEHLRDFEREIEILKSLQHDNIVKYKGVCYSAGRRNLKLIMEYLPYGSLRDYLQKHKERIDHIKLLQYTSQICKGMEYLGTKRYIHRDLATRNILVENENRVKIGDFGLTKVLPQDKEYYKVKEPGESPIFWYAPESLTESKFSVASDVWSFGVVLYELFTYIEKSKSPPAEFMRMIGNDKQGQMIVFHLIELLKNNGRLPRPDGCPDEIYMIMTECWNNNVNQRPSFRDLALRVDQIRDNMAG
Data set [14] relates to MDA-MB-231. The data set can be described thus: Induction of apoptosis in human MDA-MB-231 cells assessed as increase in cleaved caspase-9 levels at 1 to 4 uM incubated for 24 hrs by Western blot analysis. It counts as functional, cell-based.
The subject of data set [15] is 4T1. The data set can be described thus: Reduction in STAT3 phosphorylation at Tyr705 residue in mouse 4T1 cells implanted in BALB/c mouse at 10 to 20 mg/kg, ip for 14 days by Western blot analysis. The format is functional, organism-based.
Data set [16] has as its target Mitogen-activated protein kinase; ERK1/ERK2 (Homo sapiens) (UniProt P27361+P28482). The data set can be described thus: Inhibition of ERK 1/2 in human MDA-MB-231 cells assessed as reduction in ERK 1/2 phosphorylation at 1 to 4 uM incubated for 24 hrs by Western blot analysis. The format is cell-based.
Data set [17] relates to MCF7. The data set can be described thus: Potency index, ratio of IC50 of BTP to ratio of IC50 of compound for antiproliferative activity against human MCF7 cells assessed as reduction in cell viability incubated for 48 hrs by MTT assay. It counts as functional.
In data set [18] the test system is MDA-MB-231. The data set can be described thus: Induction of apoptosis in human MDA-MB-231 cells assessed as early apoptotic cells at 4 uM incubated for 24 hrs by annexinV-FITC and propidium iodide staining based flow cytometric analysis (reference value: 3.2%). It counts as functional.
Data set [19] has as its target Signal transducer and activator of transcription 3 (Homo sapiens) (UniProt P40763). In words: Inhibition of STAT3 in human MDA-MB-231 cells assessed as decrease in STAT3-DNA binding at 1 to 4 uM incubated for 24 hrs by electrophoretic mobility shift assay. The format is cell-based.
The test system of data set [20] is MDA-MB-231. In words: Induction of apoptosis in human MDA-MB-231 cells assessed as early apoptotic cells at 1 uM incubated for 24 hrs by annexinV-FITC and propidium iodide staining based flow cytometric analysis (reference value: 3.2%). The format is functional.
For data set [21], the system named is MDA-MB-231. In words: Antiproliferative activity against human MDA-MB-231 cells assessed as reduction in cell viability incubated for 48 hrs by MTT assay. It counts as functional, cell-based. The settings on record: MDA-MB-231, 48 h.
The test system of data set [22] is MDA-MB-231. In words: Inhibition of colony formation in human MDA-MB-231 cells assessed as reduction in cell proliferation at 1 uM treated for 24 hrs and measured after 10 to 14 days by crystal violet staining based assay. The format is functional.

Calls of active or inactive are those of the source. The calls are words filed in the database; no cut-off is given here.

Chain of Mitogen-activated protein kinase; ERK1/ERK2 (Homo sapiens) (P27361 whole entry, looked up): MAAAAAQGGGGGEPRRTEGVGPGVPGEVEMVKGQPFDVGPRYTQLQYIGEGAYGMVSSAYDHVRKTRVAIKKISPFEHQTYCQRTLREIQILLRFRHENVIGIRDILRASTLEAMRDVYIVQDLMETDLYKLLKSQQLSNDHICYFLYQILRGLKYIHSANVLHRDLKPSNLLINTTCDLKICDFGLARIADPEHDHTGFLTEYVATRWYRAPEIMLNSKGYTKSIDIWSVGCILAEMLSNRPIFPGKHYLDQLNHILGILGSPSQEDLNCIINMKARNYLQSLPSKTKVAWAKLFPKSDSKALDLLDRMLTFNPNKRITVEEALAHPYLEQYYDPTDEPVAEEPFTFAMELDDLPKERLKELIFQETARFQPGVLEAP
Chain of Mitogen-activated protein kinase; ERK1/ERK2 (Homo sapiens) (P28482 whole entry, looked up): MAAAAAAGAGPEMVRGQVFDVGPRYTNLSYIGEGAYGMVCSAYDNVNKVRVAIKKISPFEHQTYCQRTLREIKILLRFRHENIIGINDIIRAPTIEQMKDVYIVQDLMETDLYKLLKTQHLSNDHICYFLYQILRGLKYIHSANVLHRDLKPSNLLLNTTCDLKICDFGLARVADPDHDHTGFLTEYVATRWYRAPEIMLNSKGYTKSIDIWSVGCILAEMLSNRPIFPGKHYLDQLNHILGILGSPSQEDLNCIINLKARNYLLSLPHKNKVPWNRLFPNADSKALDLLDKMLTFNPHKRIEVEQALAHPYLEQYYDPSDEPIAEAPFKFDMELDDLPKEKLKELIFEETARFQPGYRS

As usually defined, the inhibition in vivo is the relative decrease from the control value, in per cent. The term IC50 denotes the concentration at which inhibition is half-maximal. In the case of `CCN(CC)c1ccc2cc(C(=O)N3CCN(C(=O)C4=Cc5c(Br)cccc5S4(=O)=O)CC3)c(=O)oc2c1`, the “Ratio IC50” value in the data set on MDA-MB-231 [1], with HepG2 [7] and in the data set with MCF7 [17] was 4.6 - 19 in each case. Also, in the data set on 4T1 [2], the inhibition in vivo at 10 mg/kg turned out to be 52.3%. For the same compound, the IC50 with HepG2 [3] amounted to 2.88 µM; in the data set on MCF-10A, 14.6 µM; in the data set with MCF7 [12], 3.33 µM; with MDA-MB-231 [21], 1.43 µM. In addition, the inhibition entry in data set [4] was “Dose-dependent effect”. The Activity result is “Dose-dependent effect” in the data set on MDA-MB-231 [5]; 1.2% in the data set with MDA-MB-231 [9]; 1.6% with MDA-MB-231 [10]; 15.6% with MDA-MB-231 [18]; 5.4% in the data set with MDA-MB-231 [20]. Besides, the inhibition in vivo at 20 mg/kg in the data set on 4T1 [6] turned out to be 56.9%. The outcome with MDA-MB-231 [8] and in the data set with MDA-MB-231 [14] was Active. Moreover, in [11], the selectivity ratio came out at 10.2. Moreover, the inhibition result in [13] and in data set [16] was “inactive” in each case. Moreover, the inhibition entry (with 4T1 [15]; in data set [19]; in the data set with MDA-MB-231 [22]) was “Active” each time.
